According to patent publication US5286492A, “Method of treatment of Heliobacter pylori infections with triclosan” (Reckitt & Colman Products Limited, priority 1990, dated 1994):
Values after ≈ are worked out from the molar mass of the structure shown. Where two headings read alike, the source gives them in different places.

Tests used:
[1] = tested on: Helicobacter pylori; assay: MIC50/MIC90 versus Helicobacter pylori by agar dilution technique at neutral pH; type: cell-based; settings: for activity compared with the twelve agents tested: Table 1
Procedure: (§1) The in vitro activities of a range of antimicrobial compounds versus Helicobacter pylori were determined by methods based on those of McNulty et al (Antimicrobial Agents and Chemotherapy, 28, 837-838, 1985). The Minimum Inhibitory concentrations for 50% and 90% of the strains used (MIC50 and MIC90), versus each antimicrobial were determined using an agar dilution technique.
(§2) The MIC of an antimicrobial agent was defined as that concentration (in mg per liter of agar) at which less than 1 in 10^5 organisms produced visible colonies.
(§3) Helicobacter pylori strains were isolated from gastric antrum biopsy specimens taken at routine endoscopy during investigation of upper gastrointestinal symptoms. They were identified as Helicobacter pylori by their colonial morphology, gram stain appearance and positive rapid urease test. The organisms were stored in liquid nitrogen before use and subcultured for testing by 48 hour incubation, at 37° C. under 10% carbon dioxide in Tryptone Soya Broth (TSB, OXOID, UK) plus 5% horse serum (Tissue Culture Services, UK).
The first test procedure determined the effectiveness of a range of antimicrobial substances versus 16 to 18 strains of Helicobacter pylori at neutral pH. Freshly prepared Isosensitest Agar of pH 7.2 (Oxoid, UK) supplemented with 10% saponinlysed horse blood was used to prepare a dilution series of each antimicrobial from which agar plates were produced. A multipoint inoculator (Denley-Tech, UK) was used to deliver 1 µl of undiluted test culture to the surface of each plate in the dilution series to give approximately 10^6 cfu/spot. The plates were incubated for three days at 37° C. in a microaerobic atmosphere of 6% oxygen and 10% carbon dioxide.

[2] = tested on: Helicobacter pylori infection; settings: by twelve months post therapy; cited from earlier work
[3] = tested on: Helicobacter pylori; assay: Effect of pH (5 to 8) on activity (MIC90) against Helicobacter pylori, agar dilution; type: cell-based; settings: for MIC / MIC90: Helicobacter pylori; for activity compared among the three agents (in words) / effect of pH on activity (in words): pH range 5 to 8
Procedure: as §1, §2, §3
The three selected agents were triclosan, clioquinol (5-chloro-7-iodo-8-hydroxy-quinolone) and cetalkonium chloride.
In the test procedure, Sorensens phosphate buffer (0.1M) was used to prepare the range of pH values 5, 5.5, 6, 6.5, 7, 7.5 and 8. Oxoid Columbia Agar Base (CM331) was added and the media autoclaved. After cooling to 50° C., 7% Lysed Horse Blood (Tissue Culture Services, UK) was added and media at each pH was used to prepare a range of concentrations of the three selected test antimicrobial agents. To ensure pH stability, a surface pH electrode was used to monitor control plates before, during and at the end of the three day microaerobic incubation.
The MIC90 was determined for each at each pH as described in the previous test procedure.

[4] = tested on: Helicobacter pylori; settings: cited from earlier work
[5] = eighteen isolates, neutral pH (agar pH 7.2)
[6] = Helicobacter pylori, 72 h, eighteen isolates, neutral pH (agar pH 7.2), read-out: MIC50
[7] = Helicobacter pylori, eighteen isolates, neutral pH (agar pH 7.2), read-out: MIC90
[8] = Helicobacter pylori, eighteen isolates, neutral pH (agar pH 7.2), read-out: MIC Range
[9] = Helicobacter pylori, pH 7.2, read-out: MIC Range
[10] = pH 5.0, sixteen isolates (triclosan, clioquinol) or eighteen (cetalkonium chloride), read-out: MIC90
[11] = pH 5.0, sixteen isolates (triclosan, clioquinol) or eighteen (cetalkonium chloride), read-out: MIC Range
[12] = pH 5.5, sixteen isolates (triclosan, clioquinol) or eighteen (cetalkonium chloride), read-out: MIC90
[13] = pH 5.5, sixteen isolates (triclosan, clioquinol) or eighteen (cetalkonium chloride), read-out: MIC Range
[14] = pH 6.0, sixteen isolates (triclosan, clioquinol) or eighteen (cetalkonium chloride), read-out: MIC90
[15] = pH 6.0, sixteen isolates (triclosan, clioquinol) or eighteen (cetalkonium chloride), read-out: MIC Range
[16] = pH 6.5, sixteen isolates (triclosan, clioquinol) or eighteen (cetalkonium chloride), read-out: MIC90
[17] = pH 7.0, sixteen isolates (triclosan, clioquinol) or eighteen (cetalkonium chloride), read-out: MIC90
[18] = pH 7.0, sixteen isolates (triclosan, clioquinol) or eighteen (cetalkonium chloride), read-out: MIC Range
[19] = pH 7.5, sixteen isolates (triclosan, clioquinol) or eighteen (cetalkonium chloride), read-out: MIC90
[20] = pH 7.5, sixteen isolates (triclosan, clioquinol) or eighteen (cetalkonium chloride), read-out: MIC Range
[21] = pH 8.0, sixteen isolates (triclosan, clioquinol) or eighteen (cetalkonium chloride), read-out: MIC90

In the case of Halquinol, the MIC50 [1, 5] is reported as 16 µg/mL, the MIC90 [1, 5] is reported as 16 µg/mL and the “MIC Range” value [1, 5] is reported as 16 µg/mL.

Work on CCS(=O)(=O)CCn1c([N+](=O)[O-])cnc1C [Tinidazole] yielded an MIC50 [1, 6] of 0.5 µg/mL (≈ 2.02 µM), an MIC ([1]; Helicobacter pylori, 72 h, fifteen of eighteen isolates, neutral pH, read-out: MIC of sensitive isolates) of less than 2 µg/mL and an MIC ([1]; Helicobacter pylori, 72 h, three of eighteen strains, neutral pH, read-out: MIC of strains demonstrating evidence of resistance) of 16 µg/mL. The MIC90 [1, 7] was 16 µg/mL (≈ 64.7 µM), the MIC [1, 8] was 0.25 to 16 µg/mL (≈ 1.01 to 64.7 µM) and the “distribution of MICs” value ([1]; eighteen isolates, neutral pH) was “bimodal distribution of MICs”. The “activity compared with the twelve agents tested” value ([1]; neutral pH) was “demonstrated the greatest activity of the twelve antimicrobial agents tested”.

N=C(NCCCCCCNC(=N)NC(=N)Nc1ccc(Cl)cc1)NC(=N)Nc1ccc(Cl)cc1 [Hibitane] gave an MIC50 [1, 6] of 32 µg/mL (≈ 63.3 µM), an MIC90 [1, 7] of 32 µg/mL (≈ 63.3 µM) and an MIC [1, 8] of 16 to 32 µg/mL (≈ 31.7 to 63.3 µM).

Compound CCCCCCc1ccc(O)cc1O [4-Hexylresorcinol] has an MIC50 [1, 6] of 32 µg/mL (≈ 165 µM), an MIC90 ([1]; Helicobacter pylori, pH 7.2) of 32 µg/mL (≈ 165 µM) and an MIC [1, 8] of 16 to 32 µg/mL (≈ 82.4 to 165 µM).

In the case of bismuth, the “recurrence of the infection” value [2] is given as roughly 100%.

Cc1cc(O)cc(C)c1Cl [PCMX] showed an MIC50 [1, 6] of 32 µg/mL (≈ 204 µM), an MIC90 [1, 7] of 64 µg/mL (≈ 409 µM) and an MIC [1, 8] of 8 to 64 µg/mL (≈ 51.1 to 409 µM).

In the case of CCCCC(CC)CN1CN(CC(CC)CCCC)CC(C)(N)C1 (stereo not drawn) [Hexetidine], the MIC50 [1, 6] is reported as 16 µg/mL (≈ 47.1 µM), the MIC90 [1, 7] is reported as 16 µg/mL (≈ 47.1 µM) and the MIC [1, 8] is reported as 8 to 16 µg/mL (≈ 23.6 to 47.1 µM).

CCCCCCCCCCCCCCCC[N+](C)(C)Cc1ccccc1 [Cetalkonium Cl] showed an MIC50 [1, 6] of 2 µg/mL, an MIC [1, 9] of 2 to 4 µg/mL and an MIC90 [1, 7] of 4 µg/mL. It also gave an MIC ([3]; pH 8, read-out: MIC Range) of 1 to 8 µg/mL, an MIC90 [3, 10] of 1 µg/mL and an MIC [3, 11] of 0.5 to 2 µg/mL. It also gave an MIC90 [3, 12] of 2 µg/mL, an MIC [3, 13] of 0.5 to 2 µg/mL and an MIC90 [3, 14] of 2 µg/mL. The MIC [3, 15] was 1 to 4 µg/mL, the MIC90 [3, 16] was 4 µg/mL and the MIC ([3]; pH 6.5, sixteen isolates (triclosan, clioquinol) or eighteen (cetalkonium chloride), read-out: MIC Range) was 2 to 4 µg/mL. It also gave an MIC90 [3, 17] of 4 µg/mL, an MIC [3, 18] of 2 to 4 µg/mL and an MIC90 [3, 19] of 4 µg/mL. For the same compound, the MIC [3, 20] was 1 to 4 µg/mL, the MIC90 [3, 21] was 2 µg/mL and the “activity compared among the three agents (in words)” value [3] was “demonstrated similar MIC90 activity profiles across the pH range”. The “effect of pH on activity (in words)” value [3] was “largely unaffected by pH over the range 5 to 8”.

Oc1c(I)cc(Cl)c2cccnc12 [Clioquinol, 5-chloro-7-iodo-8-hydroxy-quinolone] showed an MIC50 [1, 6] of 16 µg/mL (≈ 52.4 µM), an MIC [1, 9] of 8 to 16 µg/mL (≈ 26.2 to 52.4 µM) and an MIC90 [1, 7] of 16 µg/mL (≈ 52.4 µM). For the same compound, the MIC ([3]; pH 6.5, read-out: MIC Range) was 0.5 to 16 µg/mL (≈ 1.64 to 52.4 µM), the MIC ([3]; pH 8, read-out: MIC Range) was 0.5 to 2 µg/mL (≈ 1.64 to 6.55 µM) and the MIC90 [3, 10] was 2 µg/mL (≈ 6.55 µM). For the same compound, the MIC [3, 11] was 0.5 to 4 µg/mL (≈ 1.64 to 13.1 µM), the MIC90 [3, 12] was 8 µg/mL (≈ 26.2 µM) and the MIC [3, 13] was 2 to 8 µg/mL (≈ 6.55 to 26.2 µM). The MIC90 [3, 14] was 8 µg/mL (≈ 26.2 µM), the MIC [3, 15] was 2 to 8 µg/mL (≈ 6.55 to 26.2 µM) and the MIC90 [3, 16] was 8 µg/mL (≈ 26.2 µM). It also gave an MIC90 [3, 17] of 2 µg/mL (≈ 6.55 µM), an MIC [3, 18] of 0.5 to 4 µg/mL (≈ 1.64 to 13.1 µM) and an MIC90 [3, 19] of 2 µg/mL (≈ 6.55 µM). It also gave an MIC [3, 20] of 0.5 to 4 µg/mL (≈ 1.64 to 13.1 µM) and an MIC90 [3, 21] of 1 µg/mL (≈ 3.27 µM).

Work on Oc1cc(Cl)ccc1Oc1ccc(Cl)cc1Cl [Triclosan, 2-hydroxy-4,2',4'-trichloro-diphenyl ether] yielded an MIC50 ([1]; Helicobacter pylori, 72 h, pH 7.2) of 1 µg/mL (≈ 3.45 µM), an MIC90 ([1]; Helicobacter pylori, pH 7.2) of 8 µg/mL (≈ 27.6 µM) and an MIC [1, 9] of 0.25 to 16 µg/mL (≈ 0.863 to 55.3 µM). For the same compound, the “activity compared with the twelve agents tested” value ([1]; neutral pH) was “demonstrated the greatest activity of the twelve antimicrobial agents tested”, the MIC90 ([3]; pH 5) was 0.25 µg/mL (≈ 0.863 µM) and the MIC ([3]; pH 5, read-out: MIC Range) was 0.06 to 0.25 µg/mL (≈ 0.207 to 0.863 µM). It also gave an MIC90 ([3]; pH 5.5) of 1 µg/mL (≈ 3.45 µM), an MIC ([3]; pH 5.5, read-out: MIC Range) of 0.06 to 1 µg/mL (≈ 0.207 to 3.45 µM) and an MIC90 ([3]; pH 6) of 1 µg/mL (≈ 3.45 µM). The MIC ([3]; pH 6, read-out: MIC Range) was 0.12 to 2 µg/mL (≈ 0.414 to 6.91 µM), the MIC90 ([3]; pH 6.5) was 2 µg/mL (≈ 6.91 µM) and the MIC ([3]; pH 6.5, read-out: MIC Range) was 0.12 to 4 µg/mL (≈ 0.414 to 13.8 µM). It also gave an MIC90 ([3]; pH 7) of 2 µg/mL (≈ 6.91 µM), an MIC ([3]; pH 7, read-out: MIC Range) of 0.06 to 4 µg/mL (≈ 0.207 to 13.8 µM) and an MIC90 ([3]; pH 7.5) of 2 µg/mL (≈ 6.91 µM). The MIC ([3]; pH 7.5, read-out: MIC Range) was 0.06 to 4 µg/mL (≈ 0.207 to 13.8 µM), the MIC90 ([3]; pH 8) was 2 µg/mL (≈ 6.91 µM) and the MIC ([3]; pH 8, read-out: MIC Range) was 0.06 to 2 µg/mL (≈ 0.207 to 6.91 µM). The “activity compared among the three agents (in words)” value [3] was “demonstrated the greatest activity” and the “effect of pH on activity (in words)” value [3] was “low at pH 5.0 and unaffected in the range pH 5.5 to 8.0”.

For O=C([O-])CC(O)(CC(=O)[O-])C(=O)[O-].O=C([O-])CC(O)(CC(=O)[O-])C(=O)[O-].[Bi+3].[K+].[K+].[K+] [bismuth subcitrate], the “reported MIC90” value ([4]; neutral pH) is listed as 16 µg/mL.

In the case of COc1ccccc1O [Guaiacol], the MIC50 [1, 6] is reported as 64 µg/mL (≈ 516 µM), the MIC90 [1, 7] is reported as 64 µg/mL (≈ 516 µM) and the MIC [1, 8] is reported as 32 to 128 µg/mL (≈ 258 to 1030 µM).

Oc1ccc(Cl)cc1Cc1cc(Cl)ccc1O [Dichlorphen] gave an MIC50 [1, 6] of 16 µg/mL (≈ 59.5 µM), an MIC90 [1, 7] of 16 µg/mL (≈ 59.5 µM) and an MIC [1, 8] of 8 to 16 µg/mL (≈ 29.7 to 59.5 µM).

For Cc1ncc([N+](=O)[O-])n1CCO [metronidazole], the “distribution of MICs (previously reported)” value [4] is given as “bimodal distribution”.
